Results from PubChem BioAssay AID248 (DTP/NCI, 2004).
Where “and” joins values, the source holds several entries; their conditions need not be identical. Equal values may be shown once. Toxic doses and inconclusive results are not listed. Rule as the data show it: active = T/C of 150% or more; inactive = T/C below 125%.

Test system: L1210 leukemia ip in BDF1 mice, survival T/C
Experiment: NCI In Vivo Anticancer Drug Screen. Data for tumor model L1210 Leukemia (intraperitoneal) in B6D2F1 (BDF1) mice
Conditions: endpoint: mean survival time, higher = longer survival
Summary of the method: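 Mice bearing the transplanted tumor received compound or vehicle. Survival of the treated group was divided by that of the vehicle-treated control group to give the ratio.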

[1] = dose: 50.0 mg/kg/injection, schedule: Q01DX009 (ip), vehicle: Klucel (hydroxypropylcellulose) (HPC)
[2] = dose: 75.0 mg/kg/injection, schedule: Q01DX001 (ip), vehicle: saline
[3] = dose: 100.0 mg/kg/injection, schedule: Q01DX001 (ip), vehicle: carboxymethylcellulose (CMC)
[4] = dose: 100.0 mg/kg/injection, schedule: Q01DX001 (ip), vehicle: saline with Tween-80
[5] = dose: 100.0 mg/kg/injection, schedule: Q01DX009 (ip), vehicle: Klucel (hydroxypropylcellulose) (HPC)
[6] = dose: 100.0 mg/kg/injection, schedule: Q04DX002 (ip), vehicle: Klucel (hydroxypropylcellulose) (HPC)
[7] = dose: 100.0 mg/kg/injection, schedule: Q04DX003 (ip), vehicle: Klucel (hydroxypropylcellulose) (HPC)
[8] = dose: 100.0 mg/kg/injection, schedule: Q04DX003 (ip), vehicle: saline with Tween-80
[9] = dose: 150.0 mg/kg/injection, schedule: Q01DX001 (ip), vehicle: saline
[10] = dose: 200.0 mg/kg/injection, schedule: Q01DX001 (ip), vehicle: carboxymethylcellulose (CMC)
[11] = dose: 200.0 mg/kg/injection, schedule: Q01DX001 (ip), vehicle: saline with Tween-80
[12] = dose: 200.0 mg/kg/injection, schedule: Q01DX009 (ip), vehicle: Klucel (hydroxypropylcellulose) (HPC)
[13] = dose: 200.0 mg/kg/injection, schedule: Q04DX002 (ip), vehicle: Klucel (hydroxypropylcellulose) (HPC)
[14] = dose: 200.0 mg/kg/injection, schedule: Q04DX003 (ip), vehicle: Klucel (hydroxypropylcellulose) (HPC)
[15] = dose: 200.0 mg/kg/injection, schedule: Q04DX003 (ip), vehicle: saline with Tween-80
[16] = dose: 400.0 mg/kg/injection, schedule: Q01DX001 (ip), vehicle: carboxymethylcellulose (CMC)
[17] = dose: 400.0 mg/kg/injection, schedule: Q04DX002 (ip), vehicle: Klucel (hydroxypropylcellulose) (HPC)
[18] = dose: 50.0 mg/kg/injection, schedule: Q04DX003 (ip), vehicle: Klucel (hydroxypropylcellulose) (HPC)
[19] = dose: 400.0 mg/kg/injection, schedule: Q04DX003 (ip), vehicle: saline with Tween-80
[20] = dose: 12.5 mg/kg/injection, schedule: Q01DX009 (ip), vehicle: Klucel (hydroxypropylcellulose) (HPC)
[21] = dose: 25.0 mg/kg/injection, schedule: Q01DX009 (ip), vehicle: Klucel (hydroxypropylcellulose) (HPC)
[22] = dose: 400.0 mg/kg/injection, schedule: Q04DX003 (ip), vehicle: Klucel (hydroxypropylcellulose) (HPC)
[23] = dose: 100.0 mg/kg/injection, schedule: Q01DX001 (ip), vehicle: saline

Measured: T/C

C=CC1CN2CCC1CC2C(O)c1ccnc2ccc(OC)cc12 (configuration not stated) (tested in a mixture with another compound)
inactive: [1] 97 % of control and 95 % of control | dose: 50.0 mg/kg/injection, schedule: Q01DX009 (ip), vehicle: saline with Tween-80 95 % of control | dose: 50.0 mg/kg/injection, schedule: Q04DX003 (ip), vehicle: other 95 % of control | [2] 100 % of control and 99 % of control | [3] 98 % of control | [4] 96 % of control | [5] 97 % of control and 104 % of control | dose: 100.0 mg/kg/injection, schedule: Q01DX009 (ip), vehicle: saline with Tween-80 95 % of control | [6] 107 % of control | [7] 93 % of control | dose: 100.0 mg/kg/injection, schedule: Q04DX003 (ip), vehicle: other 103 % of control | [8] 103 % of control | dose: 100.0 mg/kg/injection, schedule: Q04DX003 (ip), vehicle: saline 102 % of control | [9] 86 % of control and 99 % of control | [10] 102 % of control | [11] 96 % of control | [12] 97 % of control | dose: 200.0 mg/kg/injection, schedule: Q01DX009 (ip), vehicle: saline with Tween-80 101 % of control | [13] 96 % of control | [14] 93 % of control | dose: 200.0 mg/kg/injection, schedule: Q04DX003 (ip), vehicle: other 93 % of control | [15] 87 % of control | dose: 200.0 mg/kg/injection, schedule: Q04DX003 (ip), vehicle: saline 96 % of control | dose: 300.0 mg/kg/injection, schedule: Q01DX001 (ip), vehicle: saline 89 % of control and 91 % of control | [16] 93 % of control | dose: 400.0 mg/kg/injection, schedule: Q01DX001 (ip), vehicle: saline with Tween-80 93 % of control | [17] 100 % of control

O=C1C(=O)c2ccccc2C(O)=C1c1ccc(Br)cc1
inactive: dose: 50.0 mg/kg/injection, schedule: Q01DX001 (ip), vehicle: carboxymethylcellulose (CMC) 120 % of control | [3] 103 % of control

O=C1c2ccccc2-c2ccc(Br)c3cccc1c23
inactive: [1] 93 % of control | [18] 100 % of control | [5] 91 % of control | [7] 95 % of control | [12] 91 % of control | [14] 100 % of control

O=C1c2ccccc2-c2cccc3ccc(Cc4ccccc4)c1c23
inactive: [4] 88 % of control | [11] 92 % of control

CCCCCCCCCCCC(CCCCCCCC)C1CCCCC1 (configuration not stated)
inactive: dose: 100.0 mg/kg/injection, schedule: Q01DX001 (ip), vehicle: saline + alcohol 101 % of control | dose: 200.0 mg/kg/injection, schedule: Q01DX001 (ip), vehicle: saline + alcohol 103 % of control | dose: 400.0 mg/kg/injection, schedule: Q01DX001 (ip), vehicle: saline + alcohol 108 % of control

CCCCC(=O)N1CCCC1
inactive: dose: 100.0 mg/kg/injection, schedule: Q04DX002 (ip), vehicle: saline 96 % of control | dose: 200.0 mg/kg/injection, schedule: Q04DX002 (ip), vehicle: saline 92 % of control | dose: 400.0 mg/kg/injection, schedule: Q04DX002 (ip), vehicle: saline 111 % of control

N#CCC[P+](CCC#N)(CCC#N)CCCC[P+](CCC#N)(CCC#N)CCC#N
inactive: [8] 94 % of control | [15] 91 % of control | [19] 94 % of control

O=C(Nc1cccc(C2=NCCN2)c1)c1cc(C(=O)Nc2cccc(C3=NCCN3)c2)cc(C(=O)Nc2cccc(C3=NCCN3)c2)c1
inactive: dose: 1.9 mg/kg/injection, schedule: Q01DX Z (ip), vehicle: carboxymethylcellulose (CMC) 97 % of control | dose: 2.8 mg/kg/injection, schedule: Q01DX Z (ip), vehicle: carboxymethylcellulose (CMC) 101 % of control | dose: 4.3 mg/kg/injection, schedule: Q01DX Z (ip), vehicle: carboxymethylcellulose (CMC) 97 % of control | dose: 6.5 mg/kg/injection, schedule: Q01DX Z (ip), vehicle: carboxymethylcellulose (CMC) 97 % of control and 103 % of control | dose: 9.7 mg/kg/injection, schedule: Q01DX Z (ip), vehicle: carboxymethylcellulose (CMC) 100 % of control | dose: 14.6 mg/kg/injection, schedule: Q01DX Z (ip), vehicle: carboxymethylcellulose (CMC) 96 % of control | dose: 22.0 mg/kg/injection, schedule: Q01DX Z (ip), vehicle: carboxymethylcellulose (CMC) 97 % of control | dose: 22.0 mg/kg/injection, schedule: Q01DX Z (ip), vehicle: saline 98 % of control | dose: 33.0 mg/kg/injection, schedule: Q01DX Z (ip), vehicle: saline 100 % of control

CCCc1cc2c(cc1CS(=O)(=O)c1ccccc1)OCO2
inactive: [20] 97 % of control | [21] 112 % of control | [1] 108 % of control | [5] 101 % of control and 102 % of control | [7] 94 % of control | [12] 102 % of control | [14] 97 % of control | [22] 101 % of control

CCCCN=C=NCCC[N+](C)(C)C
inactive: [7] 98 % of control | [14] 107 % of control

COc1ccc(C=C2C3C=CC2C2C(=O)OC(=O)C32)cc1 (configuration not stated)
inactive: [5] 101 % of control | [7] 99 % of control | [12] 97 % of control | [14] 99 % of control | [22] 89 % of control

Cc1ccc(S(=O)(=O)N(C)c2ccc(C(=O)O)c3ccccc23)cc1
inactive: [8] 105 % of control | [15] 97 % of control | [19] 100 % of control

CC(C)(C)CC(C)(C)c1ccc(OCCOC(=O)c2ccccc2C(=O)O)cc1
inactive: [21] 97 % of control | [1] 105 % of control | [5] 94 % of control

CSC(=O)C(C)(C)C
inactive: [2] 103 % of control | [9] 97 % of control

O=C(N/N=C\c1cc(=O)[nH]c(=O)[nH]1)c1ccccc1
inactive: [23] 100 % of control

Cc1cc(NCC(=O)NN)ccc1Cl
inactive: dose: 50.0 mg/kg/injection, schedule: Q04DX002 (ip), vehicle: Klucel (hydroxypropylcellulose) (HPC) 103 % of control | [6] 104 % of control and 114 % of control | [13] 86 % of control

CC1=CC(=O)C(C(C)C)C1 (configuration not stated)
inactive: dose: 100.0 mg/kg/injection, schedule: Q01DX001 (ip), vehicle: other 98 % of control | dose: 200.0 mg/kg/injection, schedule: Q01DX001 (ip), vehicle: other 109 % of control | dose: 400.0 mg/kg/injection, schedule: Q01DX001 (ip), vehicle: other 95 % of control

NC1=Nc2cccc3cccc(c23)N1
inactive: [20] 95 % of control | dose: 12.5 mg/kg/injection, schedule: Q04DX003 (ip), vehicle: Klucel (hydroxypropylcellulose) (HPC) 95 % of control | [21] 93 % of control | dose: 25.0 mg/kg/injection, schedule: Q04DX003 (ip), vehicle: Klucel (hydroxypropylcellulose) (HPC) 92 % of control | [1] 90 % of control | [18] 98 % of control

CCOC(=O)C1(C(=O)OCC)C(C)CC(=O)N1c1ccccc1OC (configuration not stated)
inactive: [6] 106 % of control | [13] 103 % of control | [17] 97 % of control

CN1CCC(C[CH2][Sn]([c]2ccccc2)([c]2ccccc2)[c]2ccccc2)CC1
inactive: dose: 25.0 mg/kg/injection, schedule: Q04DX002 (ip), vehicle: saline with Tween-80 100 % of control

Cc1ccc(C(=O)N2CCCCC2)c[n+]1C
inactive: [23] 104 % of control | dose: 200.0 mg/kg/injection, schedule: Q01DX001 (ip), vehicle: saline 100 % of control | dose: 400.0 mg/kg/injection, schedule: Q01DX001 (ip), vehicle: saline 105 % of control

OC1CCCCC1Sc1ccccc1 (configuration not stated)
inactive: dose: 100.0 mg/kg/injection, schedule: Q04DX002 (ip), vehicle: saline with Tween-80 117 % of control | dose: 200.0 mg/kg/injection, schedule: Q04DX002 (ip), vehicle: saline with Tween-80 111 % of control | dose: 400.0 mg/kg/injection, schedule: Q04DX002 (ip), vehicle: saline with Tween-80 105 % of control

CCCCCC(O)(CCCC)CCCC
inactive: [3] 104 % of control | [10] 107 % of control | [16] 102 % of control

NC(=O)N1C(=O)CC(Sc2ccc(Cl)cc2)C1=O (configuration not stated)
inactive: [3] 97 % of control | [10] 100 % of control | [16] 105 % of control
